# Measured values taken from patent publication US7659426B2, “Target protein of anticancer agent and novel anticancer agent (spnal) corresponding thereto” (Reverse Proteomics Research Institute Co., Ltd., priority 2003, dated 2010).
# Entries after “also recorded” stand apart in the source; their conditions may differ.
# How the values were obtained:
# [1] = biological target: T1, KSRP (MARTA1, a rat protein having a high homology to KSRP) (Rattus norvegicus, UniProt Q99PF5); assay: Binding experiments: compound-immobilized resins with rat brain lysate, SDS gel (FIG. 1); conditions: 4° C.
# T1 construct: from tissue; host or cells: rat brain
# T1 sequence (Q99PF5 1-721): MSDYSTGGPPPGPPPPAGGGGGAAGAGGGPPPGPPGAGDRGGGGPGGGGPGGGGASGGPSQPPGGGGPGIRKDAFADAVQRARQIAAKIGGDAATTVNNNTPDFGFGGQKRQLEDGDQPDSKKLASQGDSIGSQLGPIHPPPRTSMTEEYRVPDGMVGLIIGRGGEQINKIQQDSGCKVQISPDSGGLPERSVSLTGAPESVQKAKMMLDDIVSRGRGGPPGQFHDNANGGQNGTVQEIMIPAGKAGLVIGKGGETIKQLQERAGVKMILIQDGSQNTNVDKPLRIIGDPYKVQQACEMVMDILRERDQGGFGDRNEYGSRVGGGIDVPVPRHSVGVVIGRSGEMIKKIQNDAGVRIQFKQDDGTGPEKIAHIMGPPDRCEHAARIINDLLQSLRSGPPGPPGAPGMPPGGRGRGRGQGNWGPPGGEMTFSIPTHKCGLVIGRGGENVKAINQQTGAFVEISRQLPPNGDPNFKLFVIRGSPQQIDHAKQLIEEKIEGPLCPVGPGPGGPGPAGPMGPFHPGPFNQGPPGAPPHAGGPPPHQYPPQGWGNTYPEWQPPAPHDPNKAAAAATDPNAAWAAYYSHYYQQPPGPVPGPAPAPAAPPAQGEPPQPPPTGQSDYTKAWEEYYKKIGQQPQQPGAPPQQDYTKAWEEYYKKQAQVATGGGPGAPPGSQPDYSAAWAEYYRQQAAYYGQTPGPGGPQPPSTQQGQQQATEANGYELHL
# Protocol: The rat brain (2.4 g) was mixed in a mixture A (25 mM Tris-HCl pH 8.0, 0.5% Tween 20, 300 μM DCC (24 ml; N,N-diethyldithiocarbamate sodium)) and prepared as a homogenate, which was then centrifuged at 9,000 rpm for 10 minutes. The centrifugal supernatant was collected and further centrifuged at 50,000 rpm for 30 minutes. The supernatant thus obtained was used as the lysate.
# Each resin (10 μl) and lysate (1 ml) were gently shaken at 4° C. for about 1 hour. Thereafter, centrifugal operation was performed, and each supernatant was collected carefully. Then, each supernatant was again mixed with a fresh compound-bound resin (10 μl). At this time, the separated compound-bound resin was kept to stand at 4° C. as the resin from the first binding experiment. After the mixture was gently stirred for about 3 hours, centrifugal operation was performed, and the supernatant was removed. Subsequently, the compound-bound resin obtained in the second binding experiment and the resin obtained in the first binding experiment were gently washed with mixture A about five times to remove substances other than the protein bound onto the resin to the maximum possible extent. […]
# COX1 = COX1 (Homo sapiens, UniProt P23219); parameters: key to COX1 inhibitory effect: x: weak effect; ∘: definite inhibitory effect; conditions: cited from earlier work; for inhibitory effect on COX1: Cancer Research, 57, pp. 2909-2915 (1997)
# Sequence of COX1 (P23219 24-599): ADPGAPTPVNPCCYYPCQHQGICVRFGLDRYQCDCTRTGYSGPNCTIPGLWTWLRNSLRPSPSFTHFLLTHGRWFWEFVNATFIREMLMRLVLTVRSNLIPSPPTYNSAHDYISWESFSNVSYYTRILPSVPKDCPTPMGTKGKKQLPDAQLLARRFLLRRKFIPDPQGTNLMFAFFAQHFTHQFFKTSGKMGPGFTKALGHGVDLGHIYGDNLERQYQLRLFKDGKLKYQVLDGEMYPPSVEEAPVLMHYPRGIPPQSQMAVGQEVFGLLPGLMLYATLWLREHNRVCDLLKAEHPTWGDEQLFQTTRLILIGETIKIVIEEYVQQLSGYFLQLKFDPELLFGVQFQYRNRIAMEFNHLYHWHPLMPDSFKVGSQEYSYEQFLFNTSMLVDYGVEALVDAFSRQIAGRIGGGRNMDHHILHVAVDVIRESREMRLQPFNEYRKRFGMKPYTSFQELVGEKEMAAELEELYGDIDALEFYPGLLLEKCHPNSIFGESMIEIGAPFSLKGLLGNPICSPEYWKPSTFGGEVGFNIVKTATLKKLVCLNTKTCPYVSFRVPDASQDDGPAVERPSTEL
# COX2 = biological target: T2, COX2 (Homo sapiens, UniProt P35354); conditions: Cancer Research, 57, pp. 2909-2915 (1997); cited from earlier work
# T2 sequence (P35354 18-604): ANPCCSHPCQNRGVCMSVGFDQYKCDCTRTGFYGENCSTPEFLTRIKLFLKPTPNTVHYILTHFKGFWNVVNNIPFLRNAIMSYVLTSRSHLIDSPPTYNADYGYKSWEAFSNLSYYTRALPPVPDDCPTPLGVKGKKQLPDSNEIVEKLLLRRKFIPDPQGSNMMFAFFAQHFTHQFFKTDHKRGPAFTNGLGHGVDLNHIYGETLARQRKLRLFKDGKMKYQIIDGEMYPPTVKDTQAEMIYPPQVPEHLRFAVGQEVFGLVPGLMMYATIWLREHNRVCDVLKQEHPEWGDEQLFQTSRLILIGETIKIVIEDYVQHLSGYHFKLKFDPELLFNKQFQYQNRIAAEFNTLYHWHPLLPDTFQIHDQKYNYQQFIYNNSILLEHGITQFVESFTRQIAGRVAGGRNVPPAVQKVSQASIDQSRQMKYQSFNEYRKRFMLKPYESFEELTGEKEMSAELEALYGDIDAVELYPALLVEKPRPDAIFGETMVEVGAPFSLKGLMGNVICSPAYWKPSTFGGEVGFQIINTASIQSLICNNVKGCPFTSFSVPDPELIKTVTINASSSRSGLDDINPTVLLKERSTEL
SMILES,binding of KSRP (MARTA1) to the compound-immobilized resin [1],inhibitory effect on COX1 (COX1),COX1 inhibitory effect (COX1),inhibitory effect on COX2 (COX2)
CSc1ccc(/C=C2/C(C)=C(CC(=O)O)c3cc(F)ccc32)cc1 [Sulindac sulfide],other than the resin immobilized with sulindac sulfide; also recorded: other than the resin wherein sulindac sulfide was immobilized,–,–,–
CC1=C(CC(=O)O)c2cc(F)ccc2/C1=C\c1ccc(S(C)(=O)=O)cc1 [Sulindac sulfone],–,only weak inhibitory effect,x,only weak inhibitory effect
CC1=C(CC(=O)O)c2cc(F)ccc2/C1=C\c1ccc([S+](C)[O-])cc1 (centres unmarked) [Sulindac],–,only weak inhibitory effect,x,only weak inhibitory effect
CC(=O)O[C@H]1C(=O)[C@@]2(C)[C@H]([C@H](OC(=O)c3ccccc3)[C@]3(O)C[C@H](OC(=O)[C@H](O)[C@@H](NC(=O)c4ccccc4)c4ccccc4)C(C)=C1C3(C)C)[C@]1(OC(C)=O)CO[C@@H]1C[C@@H]2O [Taxol],binds to KSRP,–,–,–
